Assay results reported in patent US20120029054A1, “RNA Interference Mediated Inhibition of GATA Binding Protein 3 (GATA3) Gene Expression Using Short Intefering Nucleic Acid (siNA)” (Merck Sharp & Dohme Corp., priority 2009, published 2012).
[invAb] = inverted abasic unit; m = 2'-O-methyl; r = 2'-OH (RNA); f = 2'-fluoro

Experiments:
GATA3 mRNA [1] = test: GATA3 mRNA knock-down (Taqman qRT-PCR) after RNAiMax transfection of human MCF7 cells; screen and IC50 dose response; format: cell-based; settings: 10 nM siNA, MCF7 cells, 24 hrs
Description: MCF7 (human; ATCC cat# HTB-22): Cells were cultured at 37° C. in the presence of 5% CO2 and grown in Eagle's Minimum Essential medium with supplemented with fetal bovine serum at a final concentration of 10% and 100 μg/mL of streptomycin and 100 U/mL penicillin.
(§1) Cells were plated in all wells of a tissue-culture treated, 96-well plate at a final count of 5000 cells/well in 100 μL of the appropriate culture media. The cells were cultured for 24 hours after plating at 37° C. in the presence of 5% CO2.
(§2) After 24 hours, complexes containing siNA and RNAiMax were created as follows: A solution of RNAiMax diluted 33-fold in OPTI-MEM was prepared. In parallel, solutions of the siNAs for testing were prepared to a final concentration of 120 nM in OPTI-MEM. After incubation of RNAiMax/OPTI-MEM solution at room temperature for 5 min, an equal volume of the siNA solution and the RNAiMax solution were added together for each of the siNAs.
(§3) This solution was incubated at room temperature for 20 minutes. After incubation, 20 uL of the solution was added to each of the relevant wells. The final concentration of siNA in each well was 10 nM and the final volume of RNAiMax in each well was 0.3 ul.
(§4) The time of incubation with the RNAiMax-siNA complexes was 24 hours and there was no change in media between transfection and harvesting, unless otherwise indicated.
(§5) RNA was extracted from a 96-well plate using the TaqMan® Gene Expression Cells-to-CT™ Kit (Cat#4399002) with a modified protocol. Briefly, a 60 uL (1 plate) or 110 uL (2 plates) of the Lysis Solution with DNase I was dispensed into each well of the Lysis Buffer Plate (twin.tec full skirt plate). The lysis buffer and stop plates were stored at 4° C. until the cells were washed.
(§6) The plate was spun at 1100 rpm for 5 minutes. The culture medium was aspirated and discarded from the wells of the culture plate. The lysis was performed automatically using a BioMek FX instrument and method. After the Biomek method was completed, the lysis plate was incubated for 2 min. at room temperature. The lysis plate can be stored for 2 hours at 4° C., or at −20° C. or −80° C. for two months.
(§7) Each well of the reverse transcription plate required 10 uL of 2× reverse transcriptase Buffer, 1 uL of 20× reverse transcription enzyme and 2 uL of nuclease-free water. The reverse transcription master mix was prepared by mixing 2× reverse transcription buffer, 20× reverse transcription enzyme mix, and nuclease-free water. 13 uL of the reverse transcription master mix was dispensed into each well of the reverse transcription plate (semi-skirted). A separate reverse transcription plate was prepared for each cell plate. The plate was loaded onto a Biomek NX or Biomek FX Dual-96 and the Biomek method was run. The program is programmed to automatically added 7 uL of lysate from the cell lysis procedure described above into each well of the reverse transcription plate. The plate is sealed and spun on a centrifuge (1000 rpm for 30 seconds) to settle the contents to the bottom of the reverse transcription plate. The plate is placed in a thermocycler at 37° C. for 60 min, 95° C. for 5 min, and 4° C. until the plate is removed from the thermocycler. Upon removal, if not used immediately, the plate was frozen at −20° C.
(§8) A series of probes and primers were used to detect the various mRNA transcripts of the genes of β-Actin (human cell line only), and of GATA3 and GAPDH in mouse and human cell lines. All Taqman probes and primers for the experiments here-in described were supplied as pre-validated sets by Applied Biosystems, Inc. (see Table 2).
(§9) The assays were performed on an ABI 7900 instrument, according to the manufacturer's instructions. A TaqMan Gene Expression Master Mix (provided in the Cells-to-CT™, Applied Biosystems, Cat #4399002) was used. The PCR reactions were carried out at 50° C. for 2 min, 95° C. for 20 min followed by 40 cycles at 95° C. for 15 secs and 60° C. for 1 min. […]

GATA3 mRNA [2] = test: GATA3 mRNA knock-down (Taqman qRT-PCR) after RNAiMax transfection of mouse RAG cells; format: cell-based; settings: 10 nM siNA, 24 hrs, average of 2 experiments
Description: RAG (murine; ATCC cat# CCL-142): Cells were cultured at 37° C. in the presence of 5% CO2 and grown in Eagle's Minimum Essential medium with supplemented with 10% of fetal bovine serum, 100 μg/mL of streptomycin, and 100 U/mL penicillin.
as §1, §2, §3, §4, §5, §6, §7, §8, §9

Row | Substance | % KD Human (GATA3 mRNA [1]; average of 3 experiments) | % KD Mouse (GATA3 mRNA [2]) | % KD Human (GATA3 mRNA [1]; * Hs00231122_m1 Taqman Assay) | % KD Human (GATA3 mRNA [1]; ** Hs00922328_m1 Taqman Assay)
1 | 30277-DC: GATA3 siNA duplex, mouse site 1535: sense B cAuccuGcGcGAAcuGucA TTB (SEQ 107), antisense UGAcAGuucGcGcAGGAuGUU (SEQ 108) (sense CAUCCUGCGCGAACUGUCATT; antisense UGACAGUUCGCGCAGGAUGUU; sense: DNA at AGT, 2'-fluoro at CU, [invAb] at 5' end, 3' end, backbone not given here; antisense: sugars from the 5' end rrrfmmfffmfmfmmmmfmmm, backbone not given here) | −4 ± 7% | 26 ± 4% |  | 
2 | 30278-DC: GATA3 siNA duplex, mouse site 720: sense B GGAAGAGGuGGAcGuAcuu TTB (SEQ 109), antisense AAGuAcGuCCAccucuuccUU (SEQ 110) (sense GGAAGAGGUGGACGUACUUTT; antisense AAGUACGUCCACCUCUUCCUU; sense: DNA at AGT, 2'-fluoro at CU, [invAb] at 5' end, 3' end, backbone not given here; antisense: chemistry not given here) | −18 ± 5% | 60 ± 2% |  | 
3 | 30279-DC: GATA3 siNA duplex, mouse site 1448: sense B ccuGcGGAcucuAccAuAA TTB (SEQ 111), antisense UUAuGGuAGAGuccGcAGGUU (SEQ 112) (sense CCUGCGGACUCUACCAUAATT; antisense UUAUGGUAGAGUCCGCAGGUU; sense: DNA at AGT, 2'-fluoro at CU, [invAb] at 5' end, 3' end, backbone not given here; antisense: sugars from the 5' end rrrfmmfmmmmfffmfmmmmm, backbone not given here) | −27 ± 12% | 68 ± 4% |  | 
4 | 30280-DC: GATA3 siNA duplex, mouse site 1106: sense B ccGGGucGGccAGGcAAGA TTB (SEQ 113), antisense UCUuGccuGGccGAcccGGUU (SEQ 114) (sense CCGGGUCGGCCAGGCAAGATT; antisense UCUUGCCUGGCCGACCCGGUU; sense: DNA at AGT, 2'-fluoro at CU, [invAb] at 5' end, 3' end, backbone not given here; antisense: sugars from the 5' end rrrfmfffmmffmmfffmmmm, backbone not given here) | −16 ± 12% | 1 ± 2% |  | 
5 | 30281-DC: GATA3 siNA duplex, human/mouse site 904: sense B ccuucuccAAGAcGuccAu TTB (SEQ 115), antisense AUGGAcGucuuGGAGAAGGUU (SEQ 116) (sense CCUUCUCCAAGACGUCCAUTT; antisense AUGGACGUCUUGGAGAAGGUU; sense: DNA at AGT, 2'-fluoro at CU, [invAb] at 5' end, 3' end, backbone not given here; antisense: sugars from the 5' end rrrmmfmffffmmmmmmmmmm, backbone not given here) | −14 ± 7% | 13 ± 3% |  | 
6 | 30282-DC: GATA3 siNA duplex, human/mouse site 2587: sense B cAccAAAAuAAGAAAAGAu TTB (SEQ 117), antisense AUCuuuucuuAuuuuGGuGUU (SEQ 118) (sense CACCAAAAUAAGAAAAGAUTT; antisense AUCUUUUCUUAUUUUGGUGUU; sense: DNA at AGT, 2'-fluoro at CU, [invAb] at 5' end, 3' end, backbone not given here; antisense: sugars from the 5' end rrrfffffffmffffmmfmmm, backbone not given here) | 46 ± 8% | 84 ± 1% |  | 
7 | 30283-DC: GATA3 siNA duplex, human/mouse site 3067: sense B GucccuGuAAuuGuuGuuu TTB (SEQ 119), antisense AAAcAAcAAuuAcAGGGAcUU (SEQ 120) (sense GUCCCUGUAAUUGUUGUUUTT; antisense AAACAACAAUUACAGGGACUU; sense: DNA at AGT, 2'-fluoro at CU, [invAb] at 5' end, 3' end, backbone not given here; antisense: sugars from the 5' end rrrfmmfmmffmfmmmmmfmm, backbone not given here) | 32 ± 5% | 47 ± 1% |  | 
8 | 30284-DC: GATA3 siNA duplex, human/mouse site 2155: sense B uGcuGAAcAuuGcAuAuAA TTB (SEQ 121), antisense UUAuAuGcAAuGuucAGcAUU (SEQ 122) (sense UGCUGAACAUUGCAUAUAATT; antisense UUAUAUGCAAUGUUCAGCAUU; sense: DNA at AGT, 2'-fluoro at CU, [invAb] at 5' end, 3' end, backbone not given here; antisense: sugars from the 5' end rrrfmfmfmmfmfffmmfrmm, backbone not given here) | 46 ± 5% | 65 ± 0% |  | 
9 | 30285-DC: GATA3 siNA duplex, human/mouse site 2129: sense B GGucucuAGuGcuGuGAAA TTB (SEQ 123), antisense UUUcAcAGcAcuAGAGAccUU (SEQ 124) (sense GGUCUCUAGUGCUGUGAAATT; antisense UUUCACAGCACUAGAGACCUU; sense: DNA at AGT, 2'-fluoro at CU, [invAb] at 5' end, 3' end, backbone not given here; antisense: sugars from the 5' end rrrfmfmmfmffmmmmmffmm, backbone not given here) |  | 69 ± 1% | 49 ± 11* % | 52 ± 10** %
10 | 30286-DC: GATA3 siNA duplex, human/mouse site 1956: sense B GcAGGAGcAGuAucAuGAA TTB (SEQ 125), antisense UUCAuGAuAcuGcuccuGcUU (SEQ 126) (sense GCAGGAGCAGUAUCAUGAATT; antisense UUCAUGAUACUGCUCCUGCUU; sense: DNA at AGT, 2'-fluoro at CU, [invAb] at 5' end, 3' end, backbone not given here; antisense: sugars from the 5' end rrrmfmmfmffmfffffmfmm, backbone not given here) |  | 66 ± 0% | 45 ± 3* % | 40 ± 16** %
